As a reminder, the Kd is the constant that tells how readily two partners part at equilibrium.

In one test the target is 14-3-3ζ/p27 (Homo sapiens, UniProt P46527+P63104). The test is described as follows: HTRF dose-response assay on 14-3-3ζ/p27. The following applies: for EC50: stabilisation, same FRET pair, EC50 estimated from fit, read-out: HTRF EC50 14-3-3ζ/p27; for Selectivity between 14-3-3γ/SLP76 and 14-3-3ζ/p27 (in words): comparison of HTRF dose-responses. It is filed as binding. Here is the method: (§1) 384 logistic plates were prefilled with 40 μL of compounds at 10 mM, 100% DMSO in column 3. Columns 1, 2 and 4 to 22 were filled with 20 μL of 100% DMSO with a Multidrop Dispenser (ThermoScientific). 2-Fold dilutions of the compounds were carried over from column 3 to 22, with a CyBio FeliX liquid handler (analytikjena). 2 μL of R18 peptide at 20 μM was added to columns 23 and 24 of the Corning 384-well 3574 final assay plates with a Multidrop Dispenser (ThermoScientific). 40 μL of protein mixture, containing Tb labelled 14-3-3γ at 1 nM and AF647 labelled SLP76 at 600 nM in assay buffer (50 mM Tris pH 7.5, 150 mM NaCl, 5 mM MgCl2, 0.05% v/v Tween-20) were added with a Multidrop Dispenser (ThermoScientific) into the Corning 384-well 3574 final assay plates. 2 μL of compounds along with the DMSO control were then transferred with a CyBio FeliX liquid handler (analytikjena) from the 384 logistic plates to the final Corning 384-well 3574 assay plates. […] The dose–response on the first 64 compounds was performed in singlet from a 500 μM top concentration. The repetition on the best 16 compounds was performed in duplicates from a 250 μM top concentration. A dose–response assay on an unrelated 14-3-3ζ/p27 HTRF protein pair was performed as described above. Incubation, data acquisition and normalisation were performed as described above. For EC50 estimation, the data were fitted with a “log(agonist) vs. response (three parameters)” model on GraphPad Prism version 8.1.1 for Windows, GraphPad Software, La Jolla California USA, www.graphpad.com. In the case of duplicates, each data point is the average of a duplicate measurement, standard deviation is reported as error bars.
Chain of 14-3-3ζ/p27 (P63104 whole entry): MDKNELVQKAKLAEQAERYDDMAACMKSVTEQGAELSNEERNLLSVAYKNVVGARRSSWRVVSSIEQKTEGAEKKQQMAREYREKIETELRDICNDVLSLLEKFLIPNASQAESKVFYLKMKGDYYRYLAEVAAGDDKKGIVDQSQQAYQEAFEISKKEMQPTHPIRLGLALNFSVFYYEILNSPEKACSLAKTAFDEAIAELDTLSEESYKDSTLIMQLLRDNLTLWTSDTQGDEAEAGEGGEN
Chain of 14-3-3ζ/p27 (P46527 whole entry): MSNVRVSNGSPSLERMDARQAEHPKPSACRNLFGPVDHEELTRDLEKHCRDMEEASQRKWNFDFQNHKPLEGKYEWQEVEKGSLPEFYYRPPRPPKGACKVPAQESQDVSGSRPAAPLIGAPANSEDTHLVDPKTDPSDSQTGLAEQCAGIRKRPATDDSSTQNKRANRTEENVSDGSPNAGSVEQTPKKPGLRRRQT

Test [1] addresses T1, 14-3-3γ/SLP76 (Homo sapiens, UniProt P61981+Q13094). In words: HTRF dose-response assay on 14-3-3γ/SLP76. The format is binding. The following applies: stabilisation; 14-3-3γ-Tb 1 nM, SLP76-AF647 600 nM, 5% DMSO; EC50 estimated from fit; read-out: HTRF EC50 14-3-3γ/SLP76. The method, then:
384-Well logistic plates were prefilled with 2 μL of compounds at 2 mM, 100% DMSO, except for columns 1, 2, 23 and 24. Columns 1, 2 were filled with 2 μL of DMSO while columns 23, 24 were filled with 2 μL of the 14-3-3 inhibitor R18 at 20 μM using a Multidrop Dispenser (ThermoScientific). Next, 40 μL of protein mixture containing Tb-labelled 14-3-3γ at 1 nM and AF647 labelled SLP76 at 600 nM in assay buffer (50 mM Tris pH 7.5, 150 mM NaCl, 5 mM MgCl2, 0.05% v/v Tween-20) were added using a Multidrop Dispenser (ThermoScientific). […] To perform the assay, 30 μL volumes were then transferred using a Biomek FX^P Automated Workstation (Beckman Coulter) into Corning 384-well 3574 assay plates. The plates were incubated at room temperature with gentle shaking for 4 h. Finally, the data were collected on a PHERAstar FSX plate reader (BMG Labtech) with an λex 337 nm, λem 665 nm and 620 nm HTRF filter setting. The data were exported in IDBS ActivityBase (IDBS) where they were normalised setting the R18 negative control as 100% inhibition and the DMSO control as 0%. Negative percentage values were therefore associated with a stabilisation of the 14-3-3γ/SLP76 interaction. The threshold of −20% inhibition (or 20% stabilisation) was chosen to select the hits to follow up. The selected hits were retested on 14-3-3γ/SLP76 and were also tested against an unrelated protein pair (IL-17/receptor) in a similar assay setup. […] All the assays were performed as described above.
as §1

In test [2] the target is T1, 14-3-3γ/SLP76. The test is described as follows: Orthogonal SPR assay, compound flowed with SLP76 over immobilised 14-3-3γ. The format is binding. Also on record: key to SPR RU (%) mass increase 14-3-3γ/SLP76: Ns: no stabilisation observed in SPR. Particulars: for Stabilisation in SPR (in words): off-rate / mass on chip versus runs without compound; for SPR RU (%) mass increase 14-3-3γ/SLP76: percentage of SLP76 remained on the chip after the dissociation phase (+240 s). The method, then: Of the 16 hit compounds 13 were tested in an orthogonal SPR assay in which each compound was flowed with SLP76 over 14-3-3γ immobilised on the chip. Runs at different concentrations of compound were compared to the runs in absence of compound. […] The effect of the compounds on 14-3-3γ/SLP76 was measured by calculating the percentage of SLP76 remained on the chip after the dissociation phase and immediately before: RU (%) = RU 5 s before dissociation/RU +240 s after dissociation. Dose–response curves were extrapolated from those sensorgrams plotting the RU (%) mass increase over the increase in compound concentrations.
SPR experiments were performed on a Biacore T200 (Cytiva). The Sensor Chip NTA was validated as previously reported by Soini et al.[63] A DMSO tolerance at 2% and 5% was performed in the same way (Fig. S1 ^†).
For compounds testing, the compounds were preincubated with SLP76, in final DMSO concentration of 5%. The compounds were tested at a single concentration of 100 μM and at multiple concentrations following a 3-fold dilution from a top concentration of 100 μM with SLP76 at the saturation concentration of 250 nM. A second set of experiments were performed at multiple concentrations of compound following a 3-fold dilution from a top concentration of 200 μM with SLP76 around the KD concentration of 40 nM. The SLP76/compound mixtures were flowed over the immobilised 14-3-3γ at 30 μL min^−1 for 180 s before allowing dissociation for 5 minutes. After every cycle, the chip was washed with EDTA and Ni^2+ and 14-3-3γ reinjected for the next cycle. The compound effects were measured by calculating the percentage of SLP76 remained on the chip after the dissociation phase and right before: RU (%) = RU 5 s before dissociation/RU +240 s after dissociation. RU response points relative to +240 s after dissociation were also plotted and an apparent EC50 was estimated. The data were fitted with a “One site – specific” model on GraphPad Prism version 8.1.1 for Windows, GraphPad Software, La Jolla California USA, www.graphpad.com.

For test [3], the target named is T1, 14-3-3γ/SLP76. In words: HTRF dose-ratio assay (SLP76 titration at fixed compound concentrations). The format is binding. Here is the method:
Each protein titration was performed in the presence of a fixed concentration of compound. […] Proteins and R18 peptide were diluted from their stock concentration in assay buffer (50 mM Tris pH 7.5, 150 mM NaCl, 5 mM MgCl2, 0.05% v/v Tween-20). Incubation and data acquisition were performed as described above. […] For data analysis the background FRET signal generated by the titration in the presence of R18 10 μM was removed from all values. KD values for each curve were estimated and comparison with the different concentration of compounds were made. The data were fitted with a “One site – specific” model on GraphPad Prism version 8.1.1 for Windows, GraphPad Software, La Jolla California USA, www.graphpad.com. Each data point is the average of a duplicate measurement, standard deviation is reported as error bars.

Test [4] concerns the target T2, 14-3-3γ (Homo sapiens, UniProt P61981).
T2 sequence (P61981 1-247): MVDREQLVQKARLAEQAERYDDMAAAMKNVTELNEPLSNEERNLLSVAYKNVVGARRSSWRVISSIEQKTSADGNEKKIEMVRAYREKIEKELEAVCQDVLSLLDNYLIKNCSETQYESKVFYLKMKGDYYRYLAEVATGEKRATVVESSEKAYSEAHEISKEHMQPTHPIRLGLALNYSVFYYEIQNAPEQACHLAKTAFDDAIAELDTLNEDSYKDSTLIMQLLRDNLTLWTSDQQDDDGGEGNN
Also on record: method as in Soini et al. The following applies: SPR, in absence of DMSO; ref Soini et al.; read-out: KD of SLP76-SH2 binding to 14-3-3γ; cited from earlier work. In general terms: Surface plasmon resonance follows binding to a sensor surface in real time, without labels.

For test [5], the target named is T2, 14-3-3γ. In words: SPR binding assay of the SLP76-SH2 construct to 14-3-3γ. Particulars: in the presence of 5% DMSO, extrapolated from binding curve. An excerpt:
Fig. 1 Assay set-up for the 14-3-3γ/SLP76 PPI. a) SPR binding assay of the SLP76-SH2 construct binding to 14-3-3γ in the presence of 5% DMSO. The KD value has been extrapolated from the binding curve reported on the right of the sensorgrams. b) HTRF assay set-up. The two proteins of interest, SLP76 and 14-3-3γ have been labelled with […], to generate a suitable matched pair of donor molecule (Tb) and acceptor molecule (AF647). The donor molecule, Tb labelled 14-3-3, is excited at the proper wavelength of 337 nm. When the acceptor is not in the proximity (no binding) no signal is detected. When SLP76 bound to 14-3-3 brings the acceptor molecule AF647 close to the donor, energy transfer occurs between the fluorophores pair. A radiation with the wavelength of 665 nm is consequently emitted to generate a read-out (665/620 nm). All HTRF protein systems used in this work are reported in the legend.
SPR experiments were performed on a Biacore T200 (Cytiva). The Sensor Chip NTA was validated as previously reported by Soini et al.[63] A DMSO tolerance at 2% and 5% was performed in the same way (Fig. S1 ^†). […]
confirming a DMSO tolerance of the 14-3-3γ/SLP76-SH2 system in an SPR context. A KD value calculated by […]

Where “and” joins values, the source holds several entries; their conditions need not be identical. Identical values can stand only once. Entries after “also recorded” stand apart in the source; their conditions may differ. Like-named read-outs stand apart in the source and are kept apart here.

T1 sequence (Q13094 356-533, one chain of several): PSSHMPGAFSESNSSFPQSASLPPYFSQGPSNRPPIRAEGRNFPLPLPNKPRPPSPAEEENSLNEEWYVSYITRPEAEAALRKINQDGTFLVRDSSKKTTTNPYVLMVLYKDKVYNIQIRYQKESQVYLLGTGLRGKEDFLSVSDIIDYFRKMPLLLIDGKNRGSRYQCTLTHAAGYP

With `c1cc(-c2nnc3scnn23)ccn1` [Compound 7, 3-pyridin-4-yl-[1,2,4]triazolo[3,4-b][1,3,4]thiadiazole], on 14-3-3ζ/p27, the “Stabilisation of 14-3-3ζ/p27 in HTRF (in words)” value is “no measurable modulation” and the EC50 is above 250 µM. In addition, the EC50 at 14-3-3γ/SLP76 [1] is 5.3 ± 1.9 µM. Further, on 14-3-3γ/SLP76 [2], the “Stabilisation in SPR (in words)” value is reported as “orthogonally confirmed by SPR; also recorded: strong concentration dependence in off-rate” and the “SPR RU (%) mass increase 14-3-3γ/SLP76” value is 57.7%. For the same molecule, on 14-3-3γ/SLP76 [3], the “KD improvement in the SLP76 HTRF assay” value is recorded as “fourfold”.

On to `COc1ccc(C(=O)N2C[C@@H]3CN(CCO3)C(=O)[C@@H]3C[C@@H](CN3Cc3cccnc3)NC(=O)C[C@@H]3O[C@H](C2)[C@@H](O)[C@H]3O)cc1` [Compound 3, (3S,6S,10S,11R,12S,13R,17R)-11,12-dihydroxy-15-(4-methoxybenzoyl)-4-(pyridin-3-ylmethyl)-18,22-dioxa-1,4,7,15-tetrazatetracyclo[15.3.1.13,6.110,13]tricosane-2,8-dione], for which, at 14-3-3ζ/p27, the “Selectivity between 14-3-3γ/SLP76 and 14-3-3ζ/p27 (in words)” value was “selective for the 14-3-3γ/SLP76 system”; the EC50 is above 250 µM. Also, the EC50 on 14-3-3γ/SLP76 [1] was 14.4 ± 1.9 µM. Also, on 14-3-3γ/SLP76 [2], the “Stabilisation in SPR (in words)” value is recorded as “orthogonally confirmed by SPR; also recorded: orthogonally confirmed in the SPR assay” and the “SPR RU (%) mass increase 14-3-3γ/SLP76” value turned out to be 66.9%. Also, the “KD improvement in the SLP76 HTRF assay” value on 14-3-3γ/SLP76 [3] is 10 fold.

With `CC(C)CNC(=O)c1ccc2c(c1)nc1n2CCN(C(C)C)C1=O` [Compound 12, N-(2-methylpropyl)-1-oxo-2-propan-2-yl-3,4-dihydropyrazino[1,2-a]benzimidazole-8-carboxamide], the “Selectivity for 14-3-3ζ/p27 over 14-3-3γ/SLP76” value on 14-3-3ζ/p27 (ratio of HTRF EC50s) is recorded as around 9 fold. For the same molecule, the EC50 at 14-3-3ζ/p27 is 0.43 ± 0.37 µM. Moreover, at 14-3-3γ/SLP76 [1], the EC50 was 3.2 µM and 3.8 µM. At 14-3-3γ/SLP76 [2], the “Stabilisation in SPR (in words)” value is recorded as “orthogonally confirmed by SPR” and the “SPR RU (%) mass increase 14-3-3γ/SLP76” value is 67.4%.

`CC1=CCC2COC(C[N+]3(C)CCCCC3)C1C2` (stereo not drawn) [Compound 5, 1-methyl-1-[(8-methyl-3-oxabicyclo[3.3.1]non-7-en-2-yl)methyl]piperidin-1-ium]: on 14-3-3ζ/p27, the “Selectivity between 14-3-3γ/SLP76 and 14-3-3ζ/p27 (in words)” value was “selective over 14-3-3ζ/p27”; the EC50 was above 250 µM. At 14-3-3γ/SLP76 [1], the EC50 was 71.1 ± 23.9 µM. In addition, at 14-3-3γ/SLP76 [2], the “Stabilisation in SPR (in words)” value is recorded as “no observable stabilisation effect” and the “SPR RU (%) mass increase 14-3-3γ/SLP76” value was “Ns ^d”.

B1: SLP76-SH2: 20 KDa phosphorylated SLP76 protein construct (pSer376), binding partner of 14-3-3γ (protein)
chain: MPGAFSESNSSFPQSASLPPYFSQGPSNRPPIRAEGRNFPLPLPNKPRPPSPAEEENSLNEEWYVSYITRPEAEAALRKINQDGTFLVRDSSKKTTTNPYVLMVLYKDKVYNIQIRYQKESQVYLLGTGLRGKEDFLSVSDIIDYFRKMPLLLIDGKNRGSRYQCTLTHAAGYP
modifications: phospho-Ser376 (in vitro by HPK1); His6-SUMO tag cleaved; AF647 amine-labelled in HTRF; the segment is inferred to span Ser376 and the C-terminal SH2 domain to t
Consider B1, for which the Kd with 14-3-3γ [4] is 0.043 µM; with 14-3-3γ [5], 0.0279 ± 0.0015 µM.

Source of the values: paper PMC8459327, “Identification of molecular glues of the SLP76/14-3-3 protein–protein interaction” (RSC Medicinal Chemistry, 2021).
